From patent EP0563686A1, “Utilization of 3 substituted amino isoxazole derivatives against endoparasites, new 3 substituted amino isoxazols and process for their preparation” (BAYER AG, priority 1992, dated 1993) come the findings set out here.

One assay concerns Haemonchus contortus. In words: In vivo nematode test, Haemonchus contortus / sheep (faecal worm egg count before and after treatment). Also on record: species or system Schaf. The note with it: experimentally infected sheep, treated after prepatency, pure active in gelatin capsules, oral, dose giving complete cessation of egg excretion, read-out: Dosis effectiva. An excerpt: Haemonchus contortus / Schaf
Experimentell mit Haemonchus contortus infizierte Schafe wurden nach Ablauf der Präpatenzzeit des Parasiten behandelt. Die Wirkstoffe wurden als reiner Wirkstoff in Gelatinekapseln oral appliziert.
(§1) Der Wirkungsgrad wird dadurch bestimmt, daß man die mit dem Kot ausgeschiedenen Wurmeier vor und nach der Behandlung quantitativ auszählt.
Ein völliges Sistieren der Eiausscheidung nach der Behandlung bedeutet, daß die Wärmer abgetrieben wurden oder so geschädigt sind, daß sie keine Eier mehr produzieren (Dosis effectiva).
(§2) Geprüfte Wirkstoffe und wirksame Dosierungen (Dosis effectiva) sind aus der nachfolgenden Tabelle ersichtlich.

The subject of assay [1] is Trichostrongylus colubriformis. As to the kind of experiment: In vivo nematode test, Trichostrongylus colubriformis / sheep (faecal worm egg count before and after treatment). Also on record: species or system Schaf. The note with it: experimentally infected sheep, treated after prepatency, pure active in gelatin capsules, oral, dose giving complete cessation of egg excretion, read-out: Dosis effectiva.
From the text: Trichostrongylus colubriformis / Schaf
Experimentell mit Trichostrongylus colubriformis infizierte Schafe wurden nach Ablauf der Präpatenzzeit des Parasiten behandelt. Die Wirkstoffe wurden als reiner Wirkstoff in Gelatinekapseln oral appliziert.
as §1
Ein völliges Sistieren der Eiausscheidung nach der Behandlung bedeutet, daß die Würmer abgetrieben wurden oder so geschädigt sind, daß sie keine Eier mehr produzieren (Dosis effectiva).
as §2

As for `CCNc1cc(-c2ccc(OC)cc2)on1` [Beispiel 4, 3-Ethylamino-5-(4-methoxyphenyl)-isoxazol], the minimal effective dose (with Haemonchus contortus; in assay [1]) was 10 mg/kg throughout.
On to `COc1ccc(-c2cc(NC3CC3)no2)cc1` [Beispiel 6], for which the minimal effective dose (with Haemonchus contortus; in assay [1]) was 10 mg/kg throughout.
Take `COc1ccc(-c2cc(NCC3CC3)no2)cc1` [Beispiel 10]: the minimal effective dose (in the assay with Haemonchus contortus; in assay [1]) was 10 mg/kg each time.
For the molecule `COc1ccc(-c2cc(NCCc3ccccc3)no2)cc1` [Beispiel 13], the minimal effective dose with Haemonchus contortus was found to be 10 mg/kg.
As for `CCNc1cc(-c2ccc(SC(F)(F)F)cc2)on1` [Beispiel 22], the minimal effective dose (in the assay on Haemonchus contortus; in assay [1]) was 10 mg/kg in each case.
On to `Brc1ccc(-c2cc(NC3CCCCC3)no2)cc1` [Beispiel 43], for which, in the assay on Haemonchus contortus, the minimal effective dose came out at 10 mg/kg.
On to `CCNc1cc(-c2cccnc2)on1` [Beispiel 57], for which the minimal effective dose (in the assay on Haemonchus contortus; in assay [1]) was 10 mg/kg in each case.
For the molecule `CCNc1cc(-c2ccsc2)on1` [Beispiel 63], the minimal effective dose in assay [1] came out at 10 mg/kg.
